13 molecules from ChEMBL document CHEMBL1136455, “The synthesis and antibacterial activity of 1,3,4-thiadiazole phenyl oxazolidinone analogues” (Bioorg Med Chem Lett, 2003) can be followed below.

Structures are written as SMILES. Converted amounts (≈) assume the structure as drawn. Bounds are passed on as bounds.

One data set deals with Haemophilus influenzae. Briefly: In vitro antibacterial activity against ampicillin resistant Haemophilus influenzae 30063 (B-lactamase +). The format is functional.
Another data set concerns Streptococcus pneumoniae. Briefly: In vitro antibacterial activity against penicillin sensitive Streptococcus pneumoniae UC 9912. The class given is functional.
In data set [1] the test system is Staphylococcus epidermidis. Description: In vitro antibacterial activity against methicillin resistant Staphylococcus epidermidis UC 12084. The class given is functional.
The subject of the next data set is Enterococcus faecalis. Briefly: In vitro antibacterial activity against vancomycin resistant Enterococcus faecalis UC 9217 (VREA). The class given is functional.
The test system of a further data set is Moraxella catarrhalis. Description: In vitro antibacterial activity against Moraxella catarrhalis 30607. The class given is functional.
The test system of data set [2] is Staphylococcus aureus. Description: In vitro antibacterial activity against methicillin susceptible Staphylococcus aureus UC 9213 (MSSA). The class given is functional.
In data set [3] the test system is Mus musculus. Briefly: In vivo efficacy to protect the Staphylococcus aureus infected mouse and the activity was reported using Linezolid as a control with ED50 =4. The class given is functional.
The subject of data set [4] is Staphylococcus aureus. Description: In vitro antibacterial activity against methicillin resistant Staphylococcus aureus UC 12673 (MRSA). The format is functional.
Data set [5] relates to Mus musculus. Briefly: In vivo efficacy to protect the Staphylococcus aureus infected mouse and the activity was reported using Linezolid as a control with ED50 = 5.6. The class given is functional.
For data set [6], the system named is Mus musculus. Description: In vivo efficacy to protect the Staphylococcus aureus infected mouse and the activity was reported using Linezolid as a control with ED50 =[…]. The class given is functional.
The subject of data set [7] is Mus musculus. Description: In vivo efficacy to protect the Staphylococcus aureus infected mouse and the activity was reported using Linezolid as a control with ED50 = 4.3. The class given is functional.
For data set [8], the system named is Mus musculus. Briefly: In vivo efficacy to protect the Staphylococcus aureus infected mouse and the activity was reported using Linezolid as a control with ED50 =11.5. The class given is functional.
Data set [9] concerns Mus musculus. Briefly: In vivo efficacy to protect the Staphylococcus aureus infected mouse and the activity was reported using Linezolid as a control with ED50 = 2.2.
For data set [10], the system named is Mus musculus. Briefly: In vivo efficacy to protect the Staphylococcus aureus infected mouse and the activity was reported using Linezolid as a control with ED50 = 8. The format is functional.
Data set [11] in a line: Bioavailability in rat. The class given is ADME, organism-based. The note with it: in vivo.
Data set [12] can be described thus: Clearance in rat. The class given is ADME, organism-based. The note with it: in vivo.
The subject of data set [13] is Mus musculus. Description: In vivo efficacy to protect the Staphylococcus aureus infected mouse and the activity was reported using Linezolid as a control with ED50 = 3.1. The format is functional.
The subject of data set [14] is Mus musculus. Briefly: In vivo efficacy to protect the Staphylococcus aureus infected mouse and the activity was reported using Linezolid as a control with ED50 = 1.8. The format is functional.
Data set [15] relates to Mus musculus. Description: In vivo efficacy to protect the Staphylococcus aureus infected mouse and the activity was reported using Linezolid as a control with ED50 = 2.2. The format is functional.
In data set [16] the test system is Mus musculus. Description: In vivo efficacy to protect the Staphylococcus aureus infected mouse and the activity was reported using Linezolid as a control with ED50 = 2.9. The class given is functional.
In data set [17] the test system is Mus musculus. Description: In vivo efficacy to protect the Staphylococcus aureus infected mouse and the activity was reported using Linezolid as a control with ED50 = 3.7. The format is functional.
The subject of data set [18] is Staphylococcus epidermidis. Briefly: In vitro antibacterial activity against methicillin resistant Staphylococcus epidermidis UC 12084; range is 1-2. The format is functional.

As a reminder, the ED50 is the dose at which the effect has come halfway, by size or by number of responders. Low readings indicate an effect at a small dose, high ones a need for a large dose. In the case of `CC(=O)NC[C@H]1CN(c2ccc(-c3nnc(CF)s3)c(F)c2)C(=O)O1`, the MIC with Haemophilus influenzae is 4 µg/mL (≈ 10.9 µM); against Streptococcus pneumoniae, 0.25 µg/mL (≈ 0.679 µM); in [1], 0.25 µg/mL (≈ 0.679 µM); against Enterococcus faecalis, 1 µg/mL (≈ 2.71 µM); in the data set on Moraxella catarrhalis, 2 µg/mL (≈ 5.43 µM); against Staphylococcus aureus [2], 1 µg/mL (≈ 2.71 µM). Also, in the data set on Staphylococcus aureus [4], the MIC came out at 1 µg/mL (≈ 2.71 µM). Also, the 50% effect level with Mus musculus [3] (ED50) was put at a dose of 8.6 mg/kg.
As for `C/C(S)=N/C[C@H]1CN(c2ccc(-c3nncs3)c(F)c2)C(=O)O1`, the MIC against Haemophilus influenzae was 1 µg/mL (≈ 2.84 µM); with Streptococcus pneumoniae, less than 0.125 µg/mL; in data set [1], less than 0.125 µg/mL; in the data set on Enterococcus faecalis it was 0.125 µg/mL (≈ 0.355 µM); against Moraxella catarrhalis, 0.25 µg/mL (≈ 0.709 µM); in the data set with Staphylococcus aureus [2] it was 0.25 µg/mL (≈ 0.709 µM). Also, in the data set on Staphylococcus aureus [4], the MIC was less than 0.125 µg/mL. The molecule also gave an ED50 in the data set with Mus musculus [5] of more than 20 mg/kg.
Molecule `CC(=O)NC[C@H]1CN(c2ccc(-c3nnc(C(N)=O)s3)c(F)c2)C(=O)O1` returned an ED50 in the data set on Mus musculus [6] of 12.4 mg/kg. The MIC was determined as 16 µg/mL (≈ 42.2 µM) in the data set on Haemophilus influenzae; 0.25 µg/mL (≈ 0.659 µM) against Streptococcus pneumoniae; 0.25 µg/mL (≈ 0.659 µM) in data set [1]; 1 µg/mL (≈ 2.64 µM) against Enterococcus faecalis; 4 µg/mL (≈ 10.5 µM) against Moraxella catarrhalis; 0.5 µg/mL (≈ 1.32 µM) with Staphylococcus aureus [2]. In addition, in the data set on Staphylococcus aureus [4], the MIC was found to be 0.5 µg/mL (≈ 1.32 µM).
As for `CNCc1nnc(-c2ccc(N3C[C@H](C/N=C(/C)S)OC3=O)cc2F)s1`, the MIC (against Haemophilus influenzae; in the data set with Streptococcus pneumoniae; in data set [1]; with Enterococcus faecalis; with Moraxella catarrhalis; in the data set on Staphylococcus aureus [2]) was less than 0.5 µg/mL in each case. In the data set with Mus musculus [7], this molecule displayed a median effective dose (ED50) of more than 20 mg/kg.
With `CC(=O)NC[C@H]1CN(c2ccc(-c3nnc(CN)s3)c(F)c2)C(=O)O1`, the MIC was 2 µg/mL (≈ 5.47 µM) in the data set on Haemophilus influenzae; less than 0.125 µg/mL in the data set with Streptococcus pneumoniae; 1 µg/mL (≈ 2.74 µM) in [1]; 1 µg/mL (≈ 2.74 µM) against Enterococcus faecalis; 2 µg/mL (≈ 5.47 µM) against Moraxella catarrhalis; 8 µg/mL (≈ 21.9 µM) in the data set with Staphylococcus aureus [2]. For the same molecule, the MIC in the data set on Staphylococcus aureus [4] turned out to be 4 µg/mL (≈ 10.9 µM). This molecule also had an ED50 in the data set with Mus musculus [8] of 21.3 mg/kg.
As for `CC(=O)CCc1nnc(-c2ccc(N3C[C@H](CNC(C)=O)OC3=O)cc2F)s1`, the MIC with Haemophilus influenzae is 4 µg/mL (≈ 9.84 µM); against Streptococcus pneumoniae, less than 0.125 µg/mL; in data set [1], 0.25 µg/mL (≈ 0.615 µM); against Enterococcus faecalis, 0.5 µg/mL (≈ 1.23 µM); with Moraxella catarrhalis, 4 µg/mL (≈ 9.84 µM); in the data set with Staphylococcus aureus [2], 1 µg/mL (≈ 2.46 µM). The molecule also registered an MIC with Staphylococcus aureus [4] of 1 µg/mL (≈ 2.46 µM). Also, in the data set with Mus musculus [9], the ED50 was found to be 7.6 mg/kg.
Broadly, the bioavailability is the share of a dose that reaches the circulation, judged against a reference dose that is usually intravenous. Read a high bioavailability as good availability. What is called clearance is the rate of elimination divided by the concentration. As to `C/C(S)=N/C[C@H]1CN(c2ccc(-c3nnc(CN)s3)c(F)c2)C(=O)O1`, the MIC (with Haemophilus influenzae; with Streptococcus pneumoniae; in [1]; against Enterococcus faecalis; against Moraxella catarrhalis; against Staphylococcus aureus [2]) was less than 0.5 µg/mL each time. In the data set with Mus musculus [10], this molecule had a 50% effective dose (ED50) of more than 20 mg/kg. In addition, the bioavailability in data set [11] was 14%. The molecule also gave a clearance in [12] of 34.3 mL/min/kg.
In the case of `CC(=O)NC[C@H]1CN(c2ccc(-c3nnc(CO)s3)c(F)c2)C(=O)O1`, the MIC in the data set on Haemophilus influenzae was 4 µg/mL (≈ 10.9 µM); in the data set with Streptococcus pneumoniae, less than 0.125 µg/mL; in data set [1] it was 0.25 µg/mL (≈ 0.682 µM); with Enterococcus faecalis, 1 µg/mL (≈ 2.73 µM); in the data set with Moraxella catarrhalis, 2 µg/mL (≈ 5.46 µM); against Staphylococcus aureus [2], 1 µg/mL (≈ 2.73 µM). This molecule also displayed an MIC with Staphylococcus aureus [4] of 1 µg/mL (≈ 2.73 µM). The ED50 with Mus musculus [13] is 8.7 mg/kg.
Take `CC(=O)NC[C@H]1CN(c2ccc(-c3nncs3)c(F)c2)C(=O)O1`: the MIC with Haemophilus influenzae stood at 4 µg/mL (≈ 11.9 µM); with Streptococcus pneumoniae it was 0.25 µg/mL (≈ 0.743 µM); in data set [1] it was 0.25 µg/mL (≈ 0.743 µM); with Enterococcus faecalis, 1 µg/mL (≈ 2.97 µM); in the data set with Moraxella catarrhalis it was 4 µg/mL (≈ 11.9 µM); against Staphylococcus aureus [2], 1 µg/mL (≈ 2.97 µM). Besides, in the data set with Staphylococcus aureus [4], the MIC is 1 µg/mL (≈ 2.97 µM). In the data set on Mus musculus [14], this molecule had an ED50 of 2.2 mg/kg.
For `COCc1nnc(-c2ccc(N3C[C@H](CNC(C)=O)OC3=O)cc2F)s1`, the MIC with Haemophilus influenzae came out at 8 µg/mL (≈ 21 µM); against Streptococcus pneumoniae, 0.25 µg/mL (≈ 0.657 µM); in [1], 4 µg/mL (≈ 10.5 µM); with Enterococcus faecalis it was 1 µg/mL (≈ 2.63 µM); in the data set with Moraxella catarrhalis, 4 µg/mL (≈ 10.5 µM); against Staphylococcus aureus [2], 2 µg/mL (≈ 5.26 µM). In the data set with Staphylococcus aureus [4], this molecule came in with an MIC of 1 µg/mL (≈ 2.63 µM). The ED50 with Mus musculus [15] worked out at 5.8 mg/kg.
As for `CC(=O)NC[C@H]1CN(c2ccc(-c3nnc(CC#N)s3)c(F)c2)C(=O)O1`, the MIC is 4 µg/mL (≈ 10.7 µM) against Haemophilus influenzae; 0.25 µg/mL (≈ 0.666 µM) in the data set on Streptococcus pneumoniae; 0.25 µg/mL (≈ 0.666 µM) in data set [1]; 1 µg/mL (≈ 2.66 µM) against Enterococcus faecalis; 4 µg/mL (≈ 10.7 µM) with Moraxella catarrhalis; 2 µg/mL (≈ 5.33 µM) in the data set on Staphylococcus aureus [2]. In addition, the MIC against Staphylococcus aureus [4] is 1 µg/mL (≈ 2.66 µM). The molecule also had a median effective dose (ED50) in the data set on Mus musculus [16] of more than 20 mg/kg.
As for `CC(=O)NC[C@H]1CN(c2ccc(-c3nnc(COC(C)=O)s3)c(F)c2)C(=O)O1`, the MIC against Haemophilus influenzae is 4 µg/mL (≈ 9.79 µM); against Streptococcus pneumoniae it was less than 0.125 µg/mL; in [1], 0.25 µg/mL (≈ 0.612 µM); in the data set on Enterococcus faecalis, 1 µg/mL (≈ 2.45 µM); in the data set with Moraxella catarrhalis it was 2 µg/mL (≈ 4.9 µM); in the data set on Staphylococcus aureus [2] it was 1 µg/mL (≈ 2.45 µM). In the data set with Staphylococcus aureus [4], the MIC is 1 µg/mL (≈ 2.45 µM). The molecule also showed a median effective dose (ED50) in the data set on Mus musculus [17] of 18.5 mg/kg.
For `CC(=O)NC[C@H]1CN(c2ccc(N3CCOCC3)c(F)c2)C(=O)O1` [LINEZOLID], the MIC worked out at 16 µg/mL (≈ 47.4 µM) against Haemophilus influenzae, 8 µg/mL (≈ 23.7 µM) in the data set on Moraxella catarrhalis and 1 µg/mL (≈ 2.96 µM) in data set [18].
